Tests used:
human TLR2 [1] = molecular target: T1, human TLR2 (Homo sapiens, UniProt O60603); test: HEK-Blue hTLR2 antagonism assay (SEAP reporter) with agonist Pam2CSK4 (TLR2/6 agonist); assay type: cell-based; settings: HEK-Blue hTLR2 cells, ~3×EC50 Pam2CSK4, 18 h, SEAP OD 655 nm, 8-point dilutions
T1 construct: host or cells: HEK-Blue hTLR2 (HEK-293)
Experimental: (§1) Synthetic diacylated lipoprotein (Pam2CSK4, TLR2/6 agonist) and synthetic triacylated lipoprotein (Pam3CSK4, TLR1/2 agonist) were obtained from InvivoGen and were dissolved in endotoxin-free water to a concentration 1 mg/mL, vortexed until complete solubilization, and stored in aliquots at −20° C. Prior to addition to cells, an aliquot of the dissolved ligand was vortexed shortly and then was diluted in medium to 25 ng/mL Pam2CSK4 or 1000 ng/mL Pam3CSK4.
(§2) Test compounds were solubilized fresh to 10-20 mM stocks in DMSO and sonicated for 5-10 minutes in a water bath sonicator. Serial dilutions were prepared in DMSO, and then diluted in medium. The final concentration of DMSO used in the assay was 1%.
(§3) HEK-Blue hTLR2 reporter cells (InvivoGen) are HEK-293 cells stably expressing both the human TLR2 gene and a secreted embryonic alkaline phosphatase (SEAP) reporter construct downstream of NFκB promotor sites. HEK-Blue hTLR2 reporters were cultured according to manufacturer's protocol using Dulbecco's Modified Eagle Medium (DMEM; Gibco) containing 1× GlutaMax (Gibco), 10% heat-inactivated Fetal Bovine Serum (Gibco), Pen-Strep (50 U/mL penicillin, 50 μg/mL streptomycin, Gibco), 100 μg/mL Normocin (InvivoGen), and the selective antibiotic, 1×HEK-Blue Selection (InvivoGen). Quanti-Blue reagent (InvivoGen) for detection and quantification of secreted alkaline phosphatase was dissolved in 100 mL of endotoxin-free water, warmed to 37° C. for 30 minutes and then filtered using a 0.2 μm membrane.
(§4) On day 1, 50 μL of each test compound dilution in duplicates or a vehicle control was added to each well of a 96-well plate followed by addition of 150 μL of HEK-Blue hTLR2 cell suspension (1×10^5 cells/well) and incubated at 37° C./5% CO2 for 2 h. Next, 50 μL of an approximate 3×EC50 concentration of each agonist (Pam2CSK4 or Pam3CSK4) was added to the wells containing test compounds or the vehicle control. The plates were then incubated at 37° C./5% CO2 for 18 h. For each assay run, non-treated HEK-Blue hTLR2 cells were treated with serial dilutions of agonists to determine EC50 values for the respective run.
(§5) On day 2, secreted alkaline phosphatase (SEAP) activity was detected in cell culture supernatants. In brief, 20 μL was collected from each well and transferred to a 96-well plate. Next, 200 μL of Quanti-Blue detection reagent was added to each well. Plates were incubated at room temperature for 15 min. and SEAP activity was assessed by spectrophotometer OD reading at 655 nm. […] IC50 values were calculated based on 8-point dilutions for each compound.

human TLR2 [2] = molecular target: T1, human TLR2; test: HEK-Blue hTLR2 antagonism assay (SEAP reporter) with agonist Pam3CSK4 (TLR1/2 agonist); assay type: cell-based; settings: HEK-Blue hTLR2 cells, ~3×EC50 Pam3CSK4, 18 h, SEAP OD 655 nm, 8-point dilutions
Experimental: as §1, §2, §3, §4, §5

T1 sequence (O60603 21-784): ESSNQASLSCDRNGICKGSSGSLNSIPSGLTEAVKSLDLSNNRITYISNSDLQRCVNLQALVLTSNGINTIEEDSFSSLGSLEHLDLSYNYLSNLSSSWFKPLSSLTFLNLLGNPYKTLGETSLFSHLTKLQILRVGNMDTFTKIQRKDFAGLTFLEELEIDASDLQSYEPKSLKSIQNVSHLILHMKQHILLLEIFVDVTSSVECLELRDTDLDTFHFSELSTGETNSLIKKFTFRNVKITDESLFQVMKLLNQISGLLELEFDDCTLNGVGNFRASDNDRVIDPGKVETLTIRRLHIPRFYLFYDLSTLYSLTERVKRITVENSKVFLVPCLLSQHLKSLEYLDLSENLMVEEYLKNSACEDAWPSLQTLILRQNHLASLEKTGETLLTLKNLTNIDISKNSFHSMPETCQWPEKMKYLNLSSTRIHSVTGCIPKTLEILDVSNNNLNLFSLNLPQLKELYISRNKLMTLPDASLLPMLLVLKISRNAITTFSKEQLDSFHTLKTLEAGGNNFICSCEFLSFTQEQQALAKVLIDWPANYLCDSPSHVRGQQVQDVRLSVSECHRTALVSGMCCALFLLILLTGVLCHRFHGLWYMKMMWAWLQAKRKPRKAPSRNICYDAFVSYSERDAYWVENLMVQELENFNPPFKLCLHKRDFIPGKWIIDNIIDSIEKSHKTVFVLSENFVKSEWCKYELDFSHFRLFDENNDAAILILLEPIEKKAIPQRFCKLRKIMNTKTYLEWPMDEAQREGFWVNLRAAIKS

| IC50 (human TLR2 [1]; Table A) [µM] | IC50 (human TLR2 [2]; Table A) [µM] | IC50 (human TLR2 [1]; Table B) [µM] | IC50 (human TLR2 [2]; Table B) [µM] | Compound |
| --- | --- | --- | --- | --- |
| 1.4 | 0.6 | – | – | CC1(C)CCN(c2ccc(-c3nsc(-c4cc(F)c(O)c(C=O)c4)n3)cc2)C1 [Compound A100, 5-(3-(4-(3,3-dimethylpyrrolidin-1-yl)phenyl)-1,2,4-thiadiazol-5-yl)-3-fluoro-2-hydroxybenzaldehyde] |
| – | – | 7.6 | 2.3 | O=Cc1cc(C(=O)Nc2ccc(N3CCN(C4CC4)CC3)cc2)cc(F)c1O [Compound B69, N-(4-(4-cyclopropylpiperazin-1-yl)phenyl)-3-fluoro-5-formyl-4-hydroxybenzamide] |
| 6.9 | 3.9 | – | – | Oc1c(F)cc(-c2cnn(-c3ccc(N4CCCC4)cc3)c2)cc1C1OCCCO1 [Compound A34, 2-(1,3-dioxan-2-yl)-6-fluoro-4-(1-(4-(pyrrolidin-1-yl)phenyl)-1H-pyrazol-4-yl)phenol] |
| 9.9 | 8.3 | – | – | COc1cc(-c2cnn(-c3cccc(Cl)c3)c2)cc(C=O)c1O [Compound A3, 5-(1-(3-chlorophenyl)-1H-pyrazol-4-yl)-2-hydroxy-3-methoxybenzaldehyde] |
| – | – | 3.7 | 2.8 | O=Cc1cc(C(=O)Nc2ccc(N3C4CCC3CC4)cc2)cc(F)c1O [Compound B95, N-(4-(7-azabicyclo[2.2.1]heptan-7-yl)phenyl)-3-fluoro-5-formyl-4-hydroxybenzamide] |
| 1.3 | 1.3 | – | – | O=Cc1cc(-c2cn(-c3cccc(N4CCCC4)c3)nn2)cc(F)c1O [Compound A45, 3-fluoro-2-hydroxy-5-(1-(3-(pyrrolidin-1-yl)phenyl)-1H-1,2,3-triazol-4-yl)benzaldehyde] |
| – | – | 10.9 | 8 | O=Cc1cc(NC(=O)Nc2ccc(F)cc2)cc(F)c1O [Compound B64, 1-(3-fluoro-5-formyl-4-hydroxyphenyl)-3-(4-fluorophenyl)urea] |
| 1.7 | 1.5 | – | – | O=Cc1cc(-c2csc(-c3ccc(N4CCCC4)nc3)n2)cc(F)c1O [Compound A123, 3-fluoro-2-hydroxy-5-(2-(6-(pyrrolidin-1-yl)pyridin-3-yl)thiazol-4-yl)benzaldehyde] |
| – | – | 1 | 0.9 | CN(CC(C)(C)C)c1ccc(NC(=O)c2cc(F)c(O)c(C=O)c2)cc1 [Compound B94, 3-fluoro-5-formyl-4-hydroxy-N-(4-(methyl(neopentyl)amino)phenyl)benzamide] |
| 1.9 | 1 | – | – | O=Cc1cc(-c2cnc(-c3ccc(N4CCCC4)nc3)s2)cc(F)c1O [Compound A102, 3-fluoro-2-hydroxy-5-(2-(6-(pyrrolidin-1-yl)pyridin-3-yl)thiazol-5-yl)benzaldehyde] |
| – | – | 1.9 | 1.1 | O=Cc1c(O)cc(C#Cc2ccc(N3CCCCC3)cc2)cc1F [Compound B5, 2-fluoro-6-hydroxy-4-((4-(piperidin-1-yl)phenyl)ethynyl)benzaldehyde] |
| 0.9 | 0.3 | – | – | O=Cc1cc(-c2csc(-c3ccc(N4C[C@H]5CCC[C@H]5C4)cc3)n2)cc(F)c1O [Compound A97, 3-fluoro-5-(2-(4-((3aR,6aS)-hexahydrocyclopenta[c]pyrrol-2(1H)-yl)phenyl)thiazol-4-yl)-2-hydroxybenzaldehyde] |
| – | – | 11.5 | 6.5 | O=Cc1cc(C(=O)Nc2ccc(N3CCCN(C4CC4)CC3)cc2)cc(F)c1O [Compound B70, N-(4-(4-cyclopropyl-1,4-diazepan-1-yl)phenyl)-3-fluoro-5-formyl-4-hydroxybenzamide] |
| 1.3 | 0.6 | – | – | O=Cc1cc(-c2cnc(-c3ccc(N4CC5(CCC5)C4)cc3)s2)cc(F)c1O [Compound A116, 5-(2-(4-(2-azaspiro[3.3]heptan-2-yl)phenyl)thiazol-5-yl)-3-fluoro-2-hydroxybenzaldehyde] |
| – | – | 4.6 | 2.4 | O=Cc1cc(C(=O)Nc2cccc(N3CCCCC3)c2)cc(F)c1O [Compound B72, 3-fluoro-5-formyl-4-hydroxy-N-(3-(piperidin-1-yl)phenyl)benzamide] |
| 1.1 | 0.6 | – | – | O=Cc1cc(-c2csc(-c3ccc(N4CCCCC4)nc3)n2)cc(F)c1O [Compound A126, 3-fluoro-2-hydroxy-5-(2-(6-(piperidin-1-yl)pyridin-3-yl)thiazol-4-yl)benzaldehyde] |
| 2.3 | 2 | – | – | O=Cc1cc(-c2cnn(-c3ccccc3)c2)cc(F)c1O [Compound A11, 3-fluoro-2-hydroxy-5-(1-phenyl-1H-pyrazol-4-yl)benzaldehyde] |
| – | – | 2.2 | 1.6 | O=Cc1cc(C(=O)Nc2ccc(N3CCCC3)c(C(F)(F)F)c2)cc(F)c1O [Compound B91, 3-fluoro-5-formyl-4-hydroxy-N-(4-(pyrrolidin-1-yl)-3-(trifluoromethyl)phenyl) benzamide] |
| – | – | 4.1 | 1.4 | O=Cc1cc(C(=O)Nc2ccc(N3CCC4(CC4)C3)cc2)cc(F)c1O [Compound B79, N-(4-(5-azaspiro[2.4]heptan-5-yl)phenyl)-3-fluoro-5-formyl-4-hydroxybenzamide] |
| – | – | 0.5 | 0.3 | O=Cc1cc(C#Cc2ccc(N3CCCCC3)cc2)cc(F)c1O [Compound B2, 3-fluoro-2-hydroxy-5-((4-(piperidin-1-yl)phenyl)ethynyl)benzaldehyde] |

From US11299487B2, “Compounds and compositions as modulators of TLR signaling” (Neuropore Therapies, Inc., priority 2019, dated 2022)
